Results: US10617656B2, “Methods of increasing the cytotoxicity of chemotherapeutic agents with multisubstrate inhibitors of histone, protein-Lys, polyamine acetylation, and polyamine metabolism” (Vanderbilt University, priority 2010, dated 2020)

Experiments:
γ-H2A.X in H358 cells = assay: γ-H2A.X Western / double strand break repair assay; assay type: cell-based; conditions: 18 hours post-start; low doses as in FIG. 3
Protocol: Also shown are controls for no treatment (“c” minus 1a) or treatment with 1a only (“c” plus 1a). Each lane represents 60 μg protein. […] Each lane represents 60 μg protein.
To measure DSB repair, cells were incubated for 1 hour with 10 μM camptothecin to induce DSBs, followed by incubation in the presence or absence of 50 μM 1a. At fixed times, histones were prepared by extraction in 0.2M H2SO4 as described previously and 50 μg extract was analyzed by 12% SDS-PAGE followed Western analysis as described previously, using rabbit polyclonal anti-γ-H2A.X [phosphor ser 139] (Novus Biologicals, Littleton, Colo.) or anti-H3 (Upstate Biotechnology, Inc, Lake Placid, N.Y.). Band intensities were quantitated digitally. To study acetylation of γ-H2A.X, we carried out co-immunoprecipitation analysis using 50 μg extract protein in immunoprecipitation buffer (10 mM sodium phosphate pH 7, 0.15 M NaCl, 0.1% SDS, 1% NP40, 1% sodium deoxycholate, aprotinin, 1 mM PMSF, complete protease inhibitors (Roche) using immobilized anti-acetyl-lysine (Millipore, Temecula, Calif.) in the immunoprecipitation step. The immunoprecipitated material was then analyzed as for Western analysis using anti γ-H2A.X.

[1] = system: MDA MB-435 breast cancer cells; assay: 72 hr viability assay, MDA MB-435; assay type: cell-based; conditions: 72 hr assay; DFMO 100 μM, 5FU 2 μM, doxorubicin 100 nM
MCF7 breast cancer cells = conditions: for effect as single agent on viability: 72 hr assay, DFMO 100 μM, 5FU 2 μM, doxorubicin 100 nM
Protocol: Viability was measured 3 days after the start of treatment and is expressed as a percentage of control (untreated) cell viability.
Each point is average of triplicates. […]
The present inventors carried out 96-well viability assays as we have previously described (Saadatmandi et al, Cancer Gene Therapy (2002) 9:830-9), in which MCF7 breast cancer cells were plated at 3000 cells per well. After overnight attachment, triplicate wells were treated with increasing doses of inhibitor 1a. Control wells were left untreated. After 3 days, cell viability was measured by the MTS assay, which measures the bioconversion of an uncolored substrate to a colored formazan derivative, and is proportional to cell number.

H358 lung cancer cells [2] = assay: [3H]-thymidine incorporation (DNA synthesis) assay in H358 cells; assay type: cell-based; conditions: 5 nM alone (18 or 24 hours)
Protocol: (A) Structures of 1a, and the acetylated side chain of a lysine residue within the polypeptide chain of a protein targeted by the acetylating enzyme (R1 and R2 are the main chain elements on both sides of the lysyl residue). (B) [^3H]-thymidine incorporation into DNA of H358 cells pulsed for 6 hrs at three different time points after the addition of increasing concentrations of 1a, i.e., at 6-12 hrs (12 hr curve), at 18-24 hours (24 hr curve), or at 42-48 hrs (48 hr curve). Incorporation is represented as a percentage relative to control (untreated) cells. (C) Cell cycle analysis of propidium iodide-stained cells harvested at various times after addition of 50 μM 1a. % of cells in G1, S, and G2 represents the average of two independent profiles. (D) Western analysis of histone H3 lysine 9 acetylation, histone H3 lysine 56 acetylation, histone H3 lysine 9 methylation, and total histone H3, before “c” or at the indicated times after addition of 50 μM 1a. Each lane represents 60 μg cellular protein.
(§1) Control cells were left untreated. […] Control cells were left untreated.
Cells were either labeled immediately before treatment (starting DNA synthesis rate), or subjected to the indicated treatments and then pulsed on successive days until day 4. DNA synthesis is represented as the percent of starting DNA synthesis rate. Viability was determined for each treatment condition 24 hours post-start of treatment by the trypan blue exclusion assay, with percentages of viable cells indicated to the right of the graph.
H358 cells (2,000/well) in 96-well plates were treated with 1, 10 or 50 μM of spd-1a, spd-2a, spd-3a, spm3, or spm2 for 12 hours. Triplicate wells of cells were pulsed 6 hours with 0.5 μCi [^3H]-thymidine (NEN, Boston Mass.) post-start of drug treatment, and harvested onto filter paper using a Brandel Harvester and subjected to scintillation counting. Untreated cells were pulsed from 0-6 hrs to establish the initial rate of incorporation.
Cells were plated in 96-well plates (2000 cells per well to insure conditions for exponential growth for untreated cells over the time course of the experiment) and exposed to the following treatments: 1a (50 μM); camptothecin (Sigma, St Louis, Mo. 5 nM, 18 hours); cisplatin (Platinol, obtained through local pharmacies, 2 μM, 1 hour 15 minutes), 5-fluorouracil (5FU, Adrucil™, obtained through local pharmacies, 2 μM, 1 hour 15 minutes), Taxotere (provided by the late Dr. Pierre Potier, 5 nM, 18 hours). UVC treatment (40 J/m^2) using a Stratalinker™, Stratagene, La Jolla, Calif.) was carried using medium lacking phenol red. At 0-6 hr, 18-24 hr (day 1), 42-48 hr […], 66-72 hr (day 3), and 90-96 hr (day 4) post-start of treatment, triplicate wells were incubated with 0.5 μCi [^3H]-thymidine (NEN, Boston Mass.), harvested onto filter paper, and subjected to scintillation counting. Trypan blue exclusion assays for cell membrane integrity were carried out as known in the art.
The present inventors used 96-well viability assays as described in Saadatmandi et al (Cancer Gene Therapy (2002) 9:[…]) to examine the effect of 1a on DNA synthesis in H358 cells, as well as the combined effects of 1a and chemotherapeutic agents. H358 cells were plated in 96-well plates at 3000 cells per well. […]

[3] = system: γ-H2A.X in DU145 prostate cancer cells; assay: γ-H2A.X immunofluorescence in DU145 cells; assay type: cell-based; conditions: 5 nM camptothecin alone, 8 hours
Text: The immunofluorescence images on the left and right sides of the middle scheme illustrate this visually. […] Cells were fixed and stained with a rabbit antibody to the histone variant, γ-H2A.X, a marker for DNA double stranded breaks, followed by staining with a fluorescein (FITC)-tagged goat anti rabbit secondary antibody. Nuclei were stained with Hoescht 33345.

[4] = system: GT41F human skin fibroblast cells; assay: [3H]-thymidine incorporation in normal fibroblasts; assay type: cell-based; conditions: 50 μM 1a alone or 5 nM camptothecin alone
Text: Cells were either labeled immediately before treatment (starting DNA synthesis rate), or subjected to the indicated treatments and then pulsed on successive days until day 4. DNA synthesis is represented as the percent of starting DNA synthesis rate.
The present inventors used a 96-well viability assays as described in Saadatmandi et al (Cancer Gene Therapy (2002) 9:930-9) to examine the effect of the spermidine-CoA inhibitor disclosed previously on DNA synthesis in normal GT41F human skin fibroblast cells, as well as its combined effect with camptothecin. GT41F cells were plated in 96-well plates at 3000 cells per well. […] Following the 6-hour labeling, cells were harvested and incorporation of [^3H]-thymidine was determined by scintillation counting.

BT20 TNBC cells = assay: 3-day viability assay, BT20; assay type: cell-based; conditions: 5 nM
Text: (§2) Date of exp: Jul. […] Date of exp: Sep.
The effect of spd-2a on the BT20 breast cancer cell line derived form a spontaneous TNBC with wild-type BrCa1 was examined. […] Having previously established that spd-2a is a therapy sensitizer, the present inventors then examined the combined effects of spd-2a and camptothecin (the basis for the chemotherapeutic drug, Irinotecan).

[5] = system: DU145 prostate cancer cells; assay: Viability assay, DU145; assay type: cell-based; conditions: 5 nM camptothecin or 10 μM 2a
Protocol: (§3) Cells were plated in 96-well plates at 2000 cells per well and treated with the indicated doses of spd-3a. Cell viability was measured by the MTS assay 3 days later.

H358 lung cancer cells [6] = assay type: cell-based
Protocol: as §1
Cells were given fresh inhibitor on the first, second, and third days of treatment and viability was measured on the 4th day (i.e. 3 days post start of treatment). […]
(A) Structure of Spd-3a. (B) Western analysis of histone H3K9-acetylation and total histone H3, measured in control, untreated H358 lung cancer cells “C” or in H358 cells incubated 12 hours in the presence of 50 μM Spd-2a or Spd-3a. Each lane represents 60 μg cellular protein. (C) [3H]-thymidine incorporation (counts per minute) into DNA of H358 cells during a 6 hour pulse beginning at 42 hours post-start of treatment. Treatments were as follows (bars 1-6 left to right): (1) control: no treatment; (2) CPT alone: 5 nM 18 hours; (3) 3a alone: 50 μM; (4-6) 3a+CPT: CPT (5 nm, 18 hours)+3a at indicated dose. After 18 hours, CPT was removed and medium was replaced with fresh medium containing Spd-3a at the indicated dose. Each bar represents the average of triplicates. (D) 3-day 96-well viability assay of H358 cells grown in the presence of increasing amounts of Spd-2a or Spd-3a, with or without CPT (5 nM 18 hours). […] Each data point represents the average of three wells.
as §2, §3
DLD-1 cells or H358 cells were plated in 96-well plates at 2000 cells per well and treated with the indicated doses of (A) spm-3 or (B) spm-2. (C) Cell viability was measured by the MTS assay 3 days later. Similar experiment using GT41 fibroblasts with spm2 or spm 3. Each assay point represents an average of duplicates. […]

[7] = system: endogenous HATs associated with solubilized chromatin; conditions: Bandyopadhyay et al, 2009; cited from earlier work

SMILES: O=c1[nH]cc(F)c(=O)[nH]1 [5FU, 5-Fluorouracil]
- γ-H2A.X level, single agent (γ-H2A.X in H358 cells): weakly detectable
- effect as single agent on viability [1]: minimal effects
- effect as single agent on viability (MCF7 breast cancer cells): minimal effects

SMILES: COc1cccc2c1C(=O)c1c(O)c3c(c(O)c1C2=O)C[C@@](O)(C(=O)CO)C[C@@H]3O[C@H]1C[C@H](N)[C@H](O)[C@H](C)O1 [doxorubicin]
- effect as single agent on viability [1]: minimal effects
- effect as single agent on viability (MCF7 breast cancer cells): minimal effects

SMILES: CC[C@@]1(O)C(=O)OCc2c1cc1n(c2=O)Cc2cc3ccccc3nc2-1 [camptothecin]
- effect of camptothecin alone on [3H]-thymidine incorporation (H358 lung cancer cells [2]): no detectable effect
- γ-H2A.X level, single agent (γ-H2A.X in H358 cells): weakly detectable
- DNA damage (γ-H2A.X staining) [3]: minimal damage
- effect on incorporation of [3H]-thymidine, single agent [4]: virtually no effect
- effect of camptothecin by itself (BT20 TNBC cells): no effect
- 2-day cell viability relative to untreated cells (MCF7 breast cancer cells; 5 nM camptothecin alone, 18 hour): no effect
- effect of the dose on cell viability, single agent [5]: minimal effects on cell viability

SMILES: CC(C)(COP(=O)(O)OP(=O)(O)OC[C@H]1O[C@@H](n2cnc3c(N)ncnc32)[C@H](O)[C@@H]1OP(=O)(O)O)[C@@H](O)C(=O)NCCC(=O)NCCSCC(=O)NCCCCNCCCN [1b, spermidine [N8]-CoA]
- suppression of 3 day cell viability (H358 lung cancer cells [6]): 60-70%
- inhibitory activity against endogenous HAT activity, isomers compared [7]: comparable inhibitory activity

SMILES: N.N.[Cl][Pt][Cl] [cisplatin, cis-diamminedichloro-platinium]
- γ-H2A.X level, single agent (γ-H2A.X in H358 cells): weakly detectable
